Experimental data taken from paper PMC6918900, “Concentration-Dependent Activity of Hydromethylthionine on Cognitive Decline and Brain Atrophy in Mild to Moderate Alzheimer’s Disease” (Journal of Alzheimer's Disease, 2019).
Like-named read-outs stand apart in the source and are kept apart here.

Legend:
[1] = Population PK: parent MT steady state plasma Cmax,ss in Phase III patients; format: in vivo, human; details: for % high Cmax (Cmax,ss > 0.373 ng/ml): LMTM 8 mg/day; for Cmax: human, plasma, oral, parent MT
Description: (§1) Pharmacokinetic analyses were undertaken using plasma concentration data from patients who participated in either of two completed Phase III trials which have been described previously [[35, 36]]. In brief, the first (TRx-237-015) was a 15-month study which recruited 890 patients from 115 sites across 16 countries in EU, North America, Asia, and Russia. Patients had to be <90 years of age and have a diagnosis of mild to moderate probable AD according to National Institute of Aging (NIA) and Alzheimer’s Association (AA) criteria and a Mini-Mental State Examination (MMSE) score of 14–26 inclusive and with a Clinical Dementia Rating (CDR) total score of 1 or 2. The second study (TRx-237-005) was an 18-month trial which recruited 800 patients from 108 sites in Canada, United States, Australia, and Europe. Patients had to meet the same age and diagnosis criteria, except that they were required to have a MMSE score of 20–26 inclusive and a CDR total score of 0.5 or 1.0. Concomitant use of AChEIs or memantine (or both) was permitted in both studies provided this was at a stable dose for at least 18 weeks before randomization. Concomitant use of serotonergic antidepressant, antipsychotic (except clozapine or olanzapine), and sedative medications was also permitted at stable doses where clinically feasible. Patients were randomly assigned to receive LMTM at doses of 250, 150, or 8 mg/day in Study 015 and doses of 200 or 8 mg/day in Study TRx-237-005. Randomization in both studies was stratified according to geographical region, use of AD-labelled co-medications, and severity of AD. The co-primary outcomes in both studies were the Alzheimer’s Disease Assessment Scale–cognitive subscale, 11-item version (ADAS-cog11) and the Alzheimer’s Disease Co-operative Study–Activities of Daily Living, 23-item version (ADCS-ADL23) scale measured at baseline and every 3 months. MRI scans were undertaken at screening or baseline and at 3-month intervals. MRI acquisition protocol and parameters were standardized across sites and all data were centrally collected, quality-controlled, and analyzed blind by an imaging core lab (Bioclinica). Volumetric data were used to measure changes in whole brain volume (WBV, which provides a measure of the volume of grey and white matter), lateral ventricular volume (LVV), and other regional volumes including hippocampus, although only the global measures are reported in the present study. Baseline volumes were assessed using FreeSurfer 5.3, and volume change was assessed using Boundary Shift Integral and Tensor Based Morphometry for regional structures. Full details and study protocols for these two trials are available [[35, 36]].
Blood samples for assessment of parent MT, N-desmethyl MT, and total MT (sum of parent MT and a labile LMT conjugate) were collected from each patient on the first treatment visit (two samples: pre-dose and approximately 3.5 h after the dose) and at each subsequent on-treatment visit. The protocol specified that PK plasma sampling was to be conducted only at sites with adequate facilities (i.e., a refrigerated centrifuge and adequate capability to reliably freeze samples). Blinded analyses were conducted at the University of Aberdeen GLP Test Facility. MT levels in plasma were measured using liquid chromatography-tandem mass spectrometry. […] The method was validated for use in the Phase III studies over the range 0.2 to 10 ng/ml. Extrapolated MT concentrations were available below the lower limit of quantitation (but above the lower limit of detection) in approximately 35% of the Day 1 patients randomized to the 8 mg/day dose. The method was validated for long-term sample storage of 162 days at –20°C. […] Plasma samples from a total of 1,296 patients from the two Phase III studies in AD were available for analysis and, of these, 1,162 also had baseline and post-baseline efficacy outcome data available for analysis. […]

[2] = system: tau transgenic mouse model for AD; design: method as in PMID 32091331; details: 5 and 15 mg/kg/day; cited from earlier work
Route of clearance = details: in vivo
[3] = system: patients with mild to moderate Alzheimer's disease; assay: ADCS-ADL23 change over 65 weeks by plasma exposure; format: in vivo, human; details: for ADCS-ADL Difference ± SEM: split by 8 mg/day Cmax,ss median
Description: as §1
Having shown a concentration-dependent response for cognitive decline, a mixed-effects model for repeated measures analysis was used to characterize further the relationship between each efficacy endpoint and parent MT plasma exposure (steady state Cmax,ss) according to the following formula: pharmacological activity∼plasma-level×visit+co-medication-status×visit+co-medication-status×plasma-level+geographical-region+CDR-at-baseline+baseline-score×visit
The following terms were categorical variables in the models: plasma exposure (Cmax,ss) (7 levels), visit (5 levels), co-medication status with AD drugs (2 levels), geographical region (2 levels), and CDR at baseline (3 levels). For the longitudinal analyses, plasma level was described by two levels (above or below threshold).

## CN(C)c1ccc2c(c1)Sc1cc(N(C)C)ccc1N2 [LMTM, leuco-methylthioninium bis(hydromethanesulphonate)]
[1]; 8 mg/day
  patients with subthreshold plasma levels (below 0.2 ng/ml) after first dose on Day 1: 35%
[1]; 8 mg/day dose
  steady state plasma levels: 0.3 to 0.8 ng/mL
[1]; 8 mg/day, creatinine clearance 20 ml/min/1.73 m^2
  probability of achieving the Cmax,ss threshold of 0.373 ng/ml: ~100%
[1]; 8 mg/day, creatinine clearance 106 ml/min/1.73 m^2
  probability of achieving the Cmax,ss threshold of 0.373 ng/ml: essentially zero
[1]; patients not using anti-inflammatory and antirheumatic products, non-steroids
  % high Cmax (Cmax,ss > 0.373 ng/ml): 67.3%
[1]; patients not using antihypertensive/antiarrhythmic drugs
  % high Cmax (Cmax,ss > 0.373 ng/ml): 60.6%
[1]; patients not using antithrombotic agents
  % high Cmax (Cmax,ss > 0.373 ng/ml): 62.6%
[1]; patients not using blood glucose lowering drugs, excluding insulins
  % high Cmax (Cmax,ss > 0.373 ng/ml): 65.6%
[1]; patients not using drugs for peptic ulcer and gastro-esophageal reflux disease
  % high Cmax (Cmax,ss > 0.373 ng/ml): 65.3%
[1]; patients not using lipid modifying agents
  % high Cmax (Cmax,ss > 0.373 ng/ml): 66.0%
[1]; patients not using thyroid preparations
  % high Cmax (Cmax,ss > 0.373 ng/ml): 64.3%
[1]; patients using anti-inflammatory and antirheumatic products, non-steroids
  % high Cmax (Cmax,ss > 0.373 ng/ml): 59.5%
[1]; patients using antithrombotic agents
  % high Cmax (Cmax,ss > 0.373 ng/ml): 70.3%
[1]; patients using blood glucose lowering drugs, excluding insulins
  % high Cmax (Cmax,ss > 0.373 ng/ml): 66.2%
[1]; patients using drugs for peptic ulcer and gastro-esophageal reflux disease
  % high Cmax (Cmax,ss > 0.373 ng/ml): 66.9%
[1]; patients using lipid modifying agents
  % high Cmax (Cmax,ss > 0.373 ng/ml): 65.2%
[1]; patients using thyroid preparations
  % high Cmax (Cmax,ss > 0.373 ng/ml): 74.1%
[1]; expected at 16 mg/day
  estimated mean plasma concentration: 0.88 ± 0.18 ng/mL
[1]; high doses (150–250 mg/day)
  plasma concentrations: 4 to 21 ng/mL
[1]; 8 mg/day, 8 mg/day – Group 1, read-out: Cmax,ss Mean (SD)
  Cmax: 0.334 ng/mL
[1]; 8 mg/day, 8 mg/day – Group 1, read-out: Cmax,ss Range
  Cmax: 0.257 to 0.373 ng/mL
[1]; 8 mg/day, 8 mg/day – Group 2, read-out: Cmax,ss Range
  Cmax: 0.373 to 0.414 ng/mL
[1]; 8 mg/day, 8 mg/day – Group 3, read-out: Cmax,ss Mean (SD)
  Cmax: 0.449 ng/mL
[1]; 8 mg/day, 8 mg/day – Group 3, read-out: Cmax,ss Range
  Cmax: 0.415 to 0.478 ng/mL
[1]; 8 mg/day, 8 mg/day – Group 4, read-out: Cmax,ss Mean (SD)
  Cmax: 0.565 ng/mL
[1]; 8 mg/day, 8 mg/day – Group 4, read-out: Cmax,ss Range
  Cmax: 0.479 to 0.812 ng/mL
[1]; 150 mg/day, 150 mg/day, read-out: Cmax,ss Mean (SD)
  Cmax: 7.82 ng/mL
[1]; 150 mg/day, 150 mg/day, read-out: Cmax,ss Range
  Cmax: 5.1 to 18.6 ng/mL
[1]; 200 mg/day, 200 mg/day, read-out: Cmax,ss Mean (SD)
  Cmax: 10.1 ng/mL
[1]; 200 mg/day, 200 mg/day, read-out: Cmax,ss Range
  Cmax: 6.56 to 21.3 ng/mL
[1]; 250 mg/day, 250 mg/day, read-out: Cmax,ss Mean (SD)
  Cmax: 12.6 ng/mL
[1]; 250 mg/day, 250 mg/day, read-out: Cmax,ss Range
  Cmax: 8.83 to 21.2 ng/mL
[1]; 8 mg/day – Group 2, read-out: Cmax,ss Mean (SD)
  Cmax: 0.393 ng/mL
[2]
  Complex IV activity in brain mitochondria: increase Complex IV activity in brain mitochondria
  acetylcholine levels in hippocampus: increase acetylcholine levels in hippocampus
  choline acetyltransferase activity in basal forebrain: restore choline acetyltransferase activity in basal forebrain
  glutamate release from brain synaptosomes: reverse impairment in glutamate release from brain synaptosomes
Route of clearance
  share of clearance via the kidneys: 70%
[3]; LMTM 8 mg/day as add-on therapy, Cmax,ss above vs below 0.373 ng/ml
  ADCS-ADL23 Difference±SEM in change from baseline: 1.32±1.04
[3]; LMTM 8 mg/day as monotherapy, Cmax,ss above vs below 0.373 ng/ml
  ADCS-ADL23 Difference±SEM in change from baseline: 0.46±1.47
[3]; LMTM 8 mg/day as monotherapy
  ADCS-ADL Difference ± SEM: 0.52 ± 1.38
[3]; LMTM 8 mg/day, low Cmax add-on versus high Cmax monotherapy
  ADCS-ADL23 Difference±SEM in change from baseline: 6.14±1.64
[3]; all patients, high vs low exposure split by Cmax,ss 0.373 ng/ml, 65 weeks
  ADCS-ADL23 Difference±SEM in change from baseline: 0.54±0.94
[3]; all patients
  ADCS-ADL Difference ± SEM: 0.21 ± 0.81
[3]; patients receiving LMTM 8 mg/day, split by Cmax,ss 0.373 ng/ml, 65 weeks
  ADCS-ADL23 Difference±SEM in change from baseline: 1.22±1.01
